In test [1] the test system is compound 48/80 ocular surface type-1 hypersensitivity. Briefly: Ocular Type-1 hypersensitivity in albino rats (topical 48/80 model). The format is in vivo. To be noted: FIG. 1; for magnitude of reduction in vascular leakage and Evans blue extravasation, UP4U versus reference controls: rats, 48/80, 2% UP4U, 0.05% levocabastine, 0.025% ketotifen, 0.1% olopatadine eye drops. The protocol:
The rat model of ocular immediate (Type-1) hypersensitivity using topical compound 48/80 was used for testing anti-inflammatory drugs (Feinberg and Stokes, Int. Arch. Allergy Appl. Immunol. 82(3-4): 537-8. (1987)). The effects of levocabastine, ketotifen, and olopatadine, which are three approved drugs for the use of ocular surface inflammation, particularly allergic conjunctivitis, were assessed. UP4U was investigated for its effects on mitigating the clinical signs of compound 48/80 on ocular surface type-1 hypersensitivity. Ten albino rats per group were administered compound or vehicle four times daily for 3 days and twice on the fourth day (the last administration 2 h before challenge with 48/80). Comparison was made between the test substances, the test substances vehicle, the reference substance (0.05% levocabastine eye drops—Lévophta®; 0.025% ketotifen eyedrops—Zaditor®; and 0.1% olopatadine eyedrops—Patanol™), and negative control animals (untreated and unchallenged). Eye drops were instilled into the right conjunctival sac of each animal with test substances. […] The formulated compounds or vehicle were allowed to gradually run from the top to the bottom of the ocular surface. Efficacy was evaluated by measuring edema: clinical scores and extravasation of Evans blue dye (blood-eyelids and blood-eyeballs permeability indexes). The model has been previously validated (Khosravi, et al., Inflamm. Res. 44(1): 47-54 (1995)).

Test [2] has as its system ocular active anaphylaxis with egg albumin as an antigen. Briefly: Ocular active anaphylaxis, guinea pig egg albumin model. The class given is in vivo, albino guinea pigs. To be noted: FIG. 2; for magnitude of reduction on eyeballs, UP4U versus reference controls: guinea pigs, egg albumin, 2% UP4U, 0.05% levocabastine, 0.025% ketotifen, 0.1% olopatadine eye drops. From the text: The guinea pig model of ocular active anaphylaxis with egg albumin as an antigen, serves as a testing system for anti-inflammatory and anti-allergic drugs (Yamaji, et al., Methods Find. Exp. Clin. Pharmacol. 19(9): 637-43 (1997)). The ocular effects of compounds and vehicle control were investigated using an experimentally-induced ocular active anaphylaxis in the guinea pig. Ten albino guinea pigs per group were sensitized with an intraperitoneal injection of egg albumin, followed 14 days later with a challenge by a single ocular instillation of egg albumin. Four times daily for 3 days and twice on the fourth day (the last one 2 h before challenge), test substances were instilled into the right conjunctival sac of the animals. The immune response was induced by immunization with egg albumin, and the ocular reaction was induced by ocular instillation of egg albumin, thereby causing the release of allergy mediators and ocular edema. Efficacy was evaluated by measuring edema: clinical scores and extravasation of Evans blue dye (blood-eyelids and blood-eyeballs permeability indexes). Comparison was made between the test substances, the test substances vehicle, the reference substance (0.05% levocabastine eye drops—Lévophta®; 0.025% ketotifen eyedrops—Zaditor®; and 0.1% olopatadine eyedrops—Patanol™), and negative control animals (untreated and unchallenged). The model was previously validated (Khosravi, et al., Inflamm. Res. 44(1): 47-54 (1995)).

For test [3], the system named is mucociliary clearance of nasal tissue. Briefly: Nasal spray saccharin transport time (STT) test. The format is in vivo, humans. To be noted: for mean STT: pooled PAR and NR and across doses 5-80 mg/mL, single dose nasal spray, with outliers, (±SD); for STT mean (± SD): across all cohorts, NR and PAR groups pooled, without outliers (<1 minute or >30 minutes excluded). Here is the method: The speed with which the saccharin was transported this distance is a measure of mucociliary clearance.
Sixty subjects, 30 healthy non-rhinitic (NR) volunteers and 30 subjects with perennial allergic rhinitis (PAR), participated in a randomized, double-blind, single-center, 2-period crossover study evaluating escalating, single doses of a UP4dC nasal spray delivered as a non-preserved aqueous nasal spray. Each subject received a single dose (2 sprays in each nostril, 140 μL/spray) of UP4dC and placebo (0.9% w/v saline spray) on two treatment days in random order (crossover design). Five cohorts of 12 subjects received five concentration levels of UP4dC (5, 10, 20, 40, and 80 mg/mL) in ascending order. The STT was performed 5-minutes and 300-minutes post-dose on each treatment day on each subject (a saccharin particle was placed in the nose at 5 and 300 minutes post-dose and then time to taste was recorded).
Analyses were carried out excluding those STT values that were either too fast (<1 minute) or too slow (>30 minutes). Both of these scenarios are deemed as errors and are a likely result of the saccharin particle being inappropriately administered.

Test [4] deals with symptoms of perennial allergic rhinitis (PAR). Briefly: Perennial allergic rhinitis symptom study with nasal spray. The format is in vivo, humans. From the text:
This example illustrates the efficacy of a U[…] nasal spray in reducing the symptoms of perennial allergic rhinitis (PAR) in humans. Patients with PAR suffer year-round from symptoms of allergic rhinitis because they are sensitized to allergens that are present in homes and the environment throughout the year, including dust mites, molds, and animal […] (dogs, cats, cockroaches, etc). Patients with PAR experience a constellation of nasal symptoms including nasal stuffiness/congestion, runny nose, post-nasal drip, sneezing and nasal itching. These symptoms were evaluated in pivotal efficacy trials as the total nasal symptom score (TNSS) as well as by evaluating each individual symptom, including the non-nasal symptoms of facial pain/pressure and cough. Patients rated each individual symptom on a scale from 0 (none) to 3 (severe) twice daily, reflecting their symptoms upon awakening (AM) and throughout the day (PM). Fifty-nine subjects with a documented history of PAR participated in a randomized, double-blind, 3-center, parallel-group study. […] Study medication was delivered twice daily as a non-preserved aqueous nasal spray as 2 sprays (100 μL in each spray) in each nostril. […] This was most notable for the 10 mg/ml U[…] group. Comparisons of pooled active versus placebo TNSS scores approached statistical significance for AM scores (p=0.139). Table 3 indicates the symptom and dose combinations that provided statistically significant reductions (p≦0.05) compared with placebo on any day during the 6-day treatment period. Conversely, significant symptom reductions in favor of placebo were observed on one day (PM sneezing, Day 2).

Where [5] appears, read: 5 mg/mL, 6-day treatment period.
Where [6] appears, read: 10 mg/mL, 6-day treatment period.
[7] abbreviates: 40 mg/mL, 6-day treatment period.

For `CN(C)CC/C=C1/c2ccccc2COc2ccc(CC(=O)O)cc21` [olopatadine, reference compound], the “magnitude of reduction in vascular leakage and Evans blue extravasation, UP4U versus reference controls” value in test [1] is recorded as “comparable”. The “magnitude of reduction on eyeballs, UP4U versus reference controls” value (“magnitude of reduction on eyeballs” below) in test [2] was “comparable”.

On to `Nc1ccn([C@H]2C[C@H](O)[C@@H](COP(=O)(O)OP(=O)(O)OP(=O)(O)OP(=O)(O)OC[C@H]3O[C@@H](n4ccc(=O)[nH]c4=O)[C@H](O)[C@@H]3O)O2)c(=O)n1` [UP4dC, P^1-(2′-deoxycytidine 5′)-P^4-(uridine 5′-)tetraphosphate], for which the “mean STT” value in test [3] (5-hour (300-minute) post-dose assessment) was 9.58 (±10.30) minutes; in test [3] (5-minute post-dose assessment), 7.04 (±6.06) minutes. In addition, the results for the “STT mean (± SD)” value in test [3] (5 minute) and in test [3] (300 minute) were 6.89 (5.36) minutes and 8.41 (5.79) minutes, respectively. Besides, in test [3] (UP4dC nasal spray, single dose, humans), the “time elapsed before the saccharin was tasted compared to placebo” value is “shorten”. Besides, the “days with statistically significant reductions (p≦0.05) compared with placebo: Nasal blockage/stuffiness” value is “AM-Day 4” in test [4] (setting [5]) and “AM-Day 5” in test [4] (setting [6]). Moreover, the “days with statistically significant reductions (p≦0.05) compared with placebo: Post-nasal drip” value is “AM-Days 4 and 6” in test [4] (setting [5]); “AM-Days 5 and 6” in test [4] (setting [6]). Also, the “days with statistically significant reductions (p≦0.05) compared with placebo: Rhinorrhea” value in test [4] (setting [6]) was “PM-Day 5”. Further, the “days with statistically significant reductions (p≦0.05) compared with placebo: Total Symptom Score” value in test [4] (setting [6]) is “AM-Days 5 and 6”; in test [4] (setting [7]), “PM-Day 5”. The “days with statistically significant reductions (p≦0.05) compared with placebo: Itching” value in test [4] (setting [7]) is given as “AM-Day 3”. In addition, the “days with statistically significant reductions (p≦0.05) compared with placebo: TNSS” value in test [4] (setting [7]) was “AM-Day 3”. Further, the “change from the placebo run-in period in TNSS averaged over the entire 6-day treatment period” value in test [4] (AM (0–15 scale), 5 mg/mL nasal spray twice daily) was −0.96 (2.08); in test [4] (AM (0–15 scale), 10 mg/mL nasal spray twice daily), −1.20 (2.00); in test [4] (AM (0–15 scale), 40 mg/mL nasal spray twice daily), −1.14 (2.02); in test [4] (AM + PM (0–30 scale), 5 mg/mL nasal spray twice daily) it was −2.02 (4.31); in test [4] (AM + PM (0–30 scale), 10 mg/mL nasal spray twice daily), −2.59 (4.50); in test [4] (AM + PM (0–30 scale), 40 mg/mL nasal spray twice daily), −2.09 (3.99). Further, the “change from the placebo run-in period in TNSS averaged over the entire 6-day treatment period” value in test [4] (PM (0–15 scale), 5 mg/mL nasal spray twice daily) is reported as −0.94 (2.07); in test [4] (PM (0–15 scale), 10 mg/mL nasal spray twice daily) it was −1.26 (2.46); in test [4] (PM (0–15 scale), 40 mg/mL nasal spray twice daily), −1.01 (2.55). The “reductions in TNSS compared with placebo for AM, PM, and AM+PM analyses” value in test [4] (active treatment groups 5, 10, 40 mg/mL, not statistically significant versus placebo) is on record as “consistently greater reductions”.

Consider `C[C@@H]1CN([C@H]2CC[C@](C#N)(c3ccc(F)cc3)CC2)CC[C@]1(C(=O)O)c1ccccc1` [levocabastine, reference compound], for which the “magnitude of reduction in vascular leakage and Evans blue extravasation, UP4U versus reference controls” value in test [1] was “comparable”. For the same compound, the “magnitude of reduction on eyeballs” value in test [2] is recorded as “comparable”.

Turning to `CN1CCC(=C2c3ccccc3CC(=O)c3sccc32)CC1` [ketotifen, reference compound], the “magnitude of reduction in vascular leakage and Evans blue extravasation, UP4U versus reference controls” value in test [1] is “comparable”. In addition, the “magnitude of reduction on eyeballs” value in test [2] is given as “comparable”.

Take `O=c1ccn([C@@H]2O[C@H](COP(=O)(O)OP(=O)(O)OP(=O)(O)OP(=O)(O)OC[C@H]3O[C@@H](n4ccc(=O)[nH]c4=O)[C@H](O)[C@@H]3O)[C@@H](O)[C@H]2O)c(=O)[nH]1` [UP4U, P^1,P^4-di(uridine 5′-)tetraphosphate]: the “vascular leakage and Evans blue extravasation on eyelids and eyeballs” value in test [1] (rats treated with 48/80 on the ocular surface, 2% UP4U eye drops four times daily for 3 days and twice on the fourth day) is “reduced”. The “magnitude of reduction in vascular leakage and Evans blue extravasation, UP4U versus reference controls” value in test [1] is “comparable”. The “vascular leakage and Evans blue extravasation on eyeballs” value in test [2] (guinea pigs challenged with egg albumin, 2% UP4U eye drops four times daily for 3 days and twice on the fourth day) is reported as “reduced”. Also, the “magnitude of reduction on eyeballs” value in test [2] is on record as “comparable”.

Values taken from patent US7256183B2, “Method for treating or preventing inflammatory diseases” (Inspire Pharmaceuticals, Inc., priority 2001, dated 2007).
